Values after ≈ are worked out from the molar mass of the structure shown. Read-outs that look alike come from different tables or passages of the source.
How the values were obtained:
Type in all cases: cell-based
[1] = system: 100 A. baumannii strains (50 MDR, 50 non-MDR); assay: MIC broth microdilution at IHMA Europe, panel of 100 strains; settings: for MIC / MIC50 / MIC90: Acinetobacter baumannii
P. aeruginosa ATCC 27853 = assay: IHMA QC MIC; settings: Pseudomonas aeruginosa
A. baumannii ATCC 17978 = assay: IHMA QC MIC; settings: Acinetobacter baumannii, ATCC17978, read-out: MIC (QC, repeated tests)
Procedure: (§1) The panel of Hungarian clinical isolates and controls measured following the same method as detailed above, and albeit measurements were carried out in 384-well microtiter plates (Corning Inc.).

E. coli ATCC 35218 = assay: IHMA QC MIC; settings: Escherichia coli, ATCC35218, read-out: MIC (QC, repeated tests)
Procedure: as §1

E. coli ATCC 25922 = assay: IHMA QC MIC
E. faecalis ATCC 29212 = assay: IHMA QC MIC
Source text: (§2) Supplement jm2c01905_si_004.xlsx, sheet "QC" | column: MIC [µg/mL]

H. influenzae ATCC 49247 = assay: IHMA QC MIC; settings: Haemophilus influenzae
Source text: as §2

H. influenzae ATCC 49766 = assay: IHMA QC MIC
Source text: as §2

[2] = system: N. gonorrhoeae ATCC 49226; assay: IHMA QC MIC; settings: Neisseria gonorrhoeae, ATCC49226
Source text: as §2

S. pneumoniae ATCC 49619 = assay: IHMA QC MIC
Source text: as §2

## Cc1[nH]c(C(=O)Nc2nc3c(N4CCOCC4)cc(C(=O)O)cc3s2)c(Cl)c1Cl [7a, 2-(3,4-Dichloro-5-methyl-1H-pyrrole-2-carboxamido)-4-morpholinobenzo[d]thiazole-6-carboxylic Acid]
[1]; A. baumannii IHMA 1769910, Israel 2018, Non-MDR
  MIC: 16 µg/mL (≈ 35.1 µM)
[1]; A. baumannii IHMA 1795669, Tunisia 2018, Non-MDR
  MIC: 1 µg/mL (≈ 2.2 µM)
[1]; A. baumannii IHMA 1814276, Lebanon 2018, MDR
  MIC: 8 µg/mL (≈ 17.6 µM)
[1]; A. baumannii IHMA 1815198, Kuwait 2018, MDR
  MIC: 8 µg/mL (≈ 17.6 µM)
[1]; A. baumannii IHMA 1821468, South Africa 2018, Non-MDR
  MIC: 8 µg/mL (≈ 17.6 µM)
[1]; A. baumannii IHMA 1829500, Georgia 2018, Non-MDR
  MIC: 8 µg/mL (≈ 17.6 µM)
[1]; A. baumannii IHMA 1830924, United Kingdom 2018, Non-MDR
  MIC: 32 µg/mL (≈ 70.3 µM)
[1]; A. baumannii IHMA 1849819, Kuwait 2018, MDR
  MIC: 16 µg/mL (≈ 35.1 µM)
[1]; A. baumannii IHMA 1849829, Kuwait 2018, Non-MDR
  MIC: 8 µg/mL (≈ 17.6 µM)
[1]; A. baumannii IHMA 1857118, Slovenia 2018, Non-MDR
  MIC: 16 µg/mL (≈ 35.1 µM)
[1]; A. baumannii IHMA 1863631, France 2018, Non-MDR
  MIC: 8 µg/mL (≈ 17.6 µM)
[1]; A. baumannii IHMA 1870054, United States 2018, Non-MDR
  MIC: 8 µg/mL (≈ 17.6 µM)
[1]; A. baumannii IHMA 1884428, Italy 2018, Non-MDR
  MIC: 8 µg/mL (≈ 17.6 µM)
[1]; A. baumannii IHMA 1900538, Turkey 2018, Non-MDR
  MIC: 8 µg/mL (≈ 17.6 µM)
[1]; A. baumannii IHMA 1957343, Portugal 2019, Non-MDR
  MIC: 8 µg/mL (≈ 17.6 µM)
[1]; A. baumannii IHMA 1963732, Turkey 2019, MDR
  MIC: 8 µg/mL (≈ 17.6 µM)
[1]; A. baumannii IHMA 1977077, Kuwait 2019, Non-MDR
  MIC: 8 µg/mL (≈ 17.6 µM)
[1]; A. baumannii IHMA 1983151, Greece 2019, MDR
  MIC: 8 µg/mL (≈ 17.6 µM)
[1]; A. baumannii IHMA 1984665, Lithuania 2019, MDR
  MIC: 8 µg/mL (≈ 17.6 µM)
[1]; A. baumannii IHMA 1986678, Turkey 2019, Non-MDR
  MIC: 8 µg/mL (≈ 17.6 µM)
[1]; A. baumannii IHMA 1986738, Turkey 2019, MDR
  MIC: 8 µg/mL (≈ 17.6 µM)
[1]; A. baumannii IHMA 1995161, Czech Republic 2019, Non-MDR
  MIC: 8 µg/mL (≈ 17.6 µM)
[1]; A. baumannii IHMA 1997936, Morocco 2019, Non-MDR
  MIC: 8 µg/mL (≈ 17.6 µM)
[1]; A. baumannii IHMA 2003279, Turkey 2019, MDR
  MIC: 8 µg/mL (≈ 17.6 µM)
[1]; A. baumannii IHMA 2014931, South Africa 2019, Non-MDR
  MIC: 16 µg/mL (≈ 35.1 µM)
[1]; A. baumannii IHMA 2019315, Romania 2019, Non-MDR
  MIC: 8 µg/mL (≈ 17.6 µM)
[1]; A. baumannii IHMA 2020360, Croatia 2019, MDR
  MIC: 8 µg/mL (≈ 17.6 µM)
[1]; A. baumannii IHMA 2031524, Greece 2019, MDR
  MIC: 8 µg/mL (≈ 17.6 µM)
[1]; A. baumannii IHMA 2034657, Tunisia 2019, Non-MDR
  MIC: 16 µg/mL (≈ 35.1 µM)
[1]; A. baumannii IHMA 2035089, Serbia 2019, MDR
  MIC: 8 µg/mL (≈ 17.6 µM)
[1]; A. baumannii IHMA 2035134, Serbia 2019, Non-MDR
  MIC: 8 µg/mL (≈ 17.6 µM)
[1]; A. baumannii IHMA 2038976, Hungary 2019, MDR
  MIC: 8 µg/mL (≈ 17.6 µM)
[1]; A. baumannii IHMA 2058329, Slovenia 2019, Non-MDR
  MIC: 8 µg/mL (≈ 17.6 µM)
[1]; A. baumannii IHMA 2099294, United Kingdom 2019, Non-MDR
  MIC: 8 µg/mL (≈ 17.6 µM)
[1]; A. baumannii IHMA 2129256, Qatar 2019, Non-MDR
  MIC: 8 µg/mL (≈ 17.6 µM)
[1]; A. baumannii IHMA 2154584, Israel 2020, MDR
  MIC: 8 µg/mL (≈ 17.6 µM)
[1]; A. baumannii IHMA 2156634, Turkey 2020, MDR
  MIC: 8 µg/mL (≈ 17.6 µM)
[1]; A. baumannii IHMA 2156709, Turkey 2020, MDR
  MIC: 8 µg/mL (≈ 17.6 µM)
[1]; A. baumannii IHMA 2157614, Australia 2020, Non-MDR
  MIC: 16 µg/mL (≈ 35.1 µM)
[1]; A. baumannii IHMA 2177232, Lithuania 2020, MDR
  MIC: 8 µg/mL (≈ 17.6 µM)
[1]; A. baumannii IHMA 2177489, Lithuania 2020, MDR
  MIC: 8 µg/mL (≈ 17.6 µM)
[1]; A. baumannii IHMA 2178574, Ukraine 2020, Non-MDR
  MIC: 16 µg/mL (≈ 35.1 µM)
[1]; A. baumannii IHMA 2180134, Malaysia 2020, Non-MDR
  MIC: 8 µg/mL (≈ 17.6 µM)
[1]; A. baumannii IHMA 2181370, Morocco 2020, MDR
  MIC: 8 µg/mL (≈ 17.6 µM)
[1]; A. baumannii IHMA 2183729, Argentina 2020, MDR
  MIC: 16 µg/mL (≈ 35.1 µM)
[1]; A. baumannii IHMA 2183849, Argentina 2020, Non-MDR
  MIC: 8 µg/mL (≈ 17.6 µM)
[1]; A. baumannii IHMA 2193375, Venezuela 2020, MDR
  MIC: 8 µg/mL (≈ 17.6 µM)
[1]; A. baumannii IHMA 2193607, Venezuela 2020, MDR
  MIC: 8 µg/mL (≈ 17.6 µM)
[1]; A. baumannii IHMA 2195460, Italy 2020, MDR
  MIC: 8 µg/mL (≈ 17.6 µM)
[1]; A. baumannii IHMA 2196914, South Africa 2020, MDR
  MIC: 8 µg/mL (≈ 17.6 µM)
[1]; A. baumannii IHMA 2196959, South Africa 2020, MDR
  MIC: 8 µg/mL (≈ 17.6 µM)
[1]; A. baumannii IHMA 2203763, Spain 2020, MDR
  MIC: 8 µg/mL (≈ 17.6 µM)
[1]; A. baumannii IHMA 2212575, Hungary 2020, Non-MDR
  MIC: 16 µg/mL (≈ 35.1 µM)
[1]; A. baumannii IHMA 2215307, Hong Kong 2020, Non-MDR
  MIC: 8 µg/mL (≈ 17.6 µM)
[1]; A. baumannii IHMA 2216586, Taiwan 2020, MDR
  MIC: 8 µg/mL (≈ 17.6 µM)
[1]; A. baumannii IHMA 2224017, Panama 2020, MDR
  MIC: 16 µg/mL (≈ 35.1 µM)
[1]; A. baumannii IHMA 2224303, Panama 2020, Non-MDR
  MIC: 32 µg/mL (≈ 70.3 µM)
[1]; A. baumannii IHMA 2233099, Guatemala 2020, MDR
  MIC: 16 µg/mL (≈ 35.1 µM)
[1]; A. baumannii IHMA 2233430, Kazakhstan 2020, MDR
  MIC: 8 µg/mL (≈ 17.6 µM)
[1]; A. baumannii IHMA 2233548, Kazakhstan 2020, Non-MDR
  MIC: 8 µg/mL (≈ 17.6 µM)
[1]; A. baumannii IHMA 2238964, Thailand 2020, MDR
  MIC: 8 µg/mL (≈ 17.6 µM)
[1]; A. baumannii IHMA 2239052, Thailand 2020, Non-MDR
  MIC: 8 µg/mL (≈ 17.6 µM)
[1]; A. baumannii IHMA 2261047, Belgium 2020, MDR
  MIC: 16 µg/mL (≈ 35.1 µM)
[1]; A. baumannii IHMA 2261633, Canada 2020, Non-MDR
  MIC: 16 µg/mL (≈ 35.1 µM)
[1]; A. baumannii IHMA 2274234, South Africa 2020, MDR
  MIC: 8 µg/mL (≈ 17.6 µM)
[1]; A. baumannii IHMA 2274364, South Africa 2020, MDR
  MIC: 8 µg/mL (≈ 17.6 µM)
[1]; A. baumannii IHMA 2275237, Chile 2020, Non-MDR
  MIC: 8 µg/mL (≈ 17.6 µM)
[1]; A. baumannii IHMA 2316205, United States 2020, MDR
  MIC: 8 µg/mL (≈ 17.6 µM)
[1]; MDR n = 50
  MIC50: 8 µg/mL (≈ 17.6 µM)
  MIC90: 8 µg/mL (≈ 17.6 µM)
  MAX (maximum MIC; all strains inhibited): 16 µg/mL
[1]; all isolates n = 100
  MIC50: 8 µg/mL (≈ 17.6 µM)
  MIC90: 16 µg/mL (≈ 35.1 µM)
[1]; non-MDR n = 50
  MIC50: 8 µg/mL (≈ 17.6 µM)
  MIC90: 16 µg/mL (≈ 35.1 µM)
[1]; read-out: MAX (maximum MIC), non-MDR n = 50
  MIC: 32 µg/mL (≈ 70.3 µM)
[1]; read-out: MAX (maximum MIC; all strains inhibited), MDR n = 50
  MIC: 16 µg/mL (≈ 35.1 µM)
[1]; read-out: MAX (maximum MIC; all strains inhibited), all isolates n = 100
  MIC: 32 µg/mL (≈ 70.3 µM)
[1]; read-out: MIN (minimum MIC), all isolates n = 100
  MIC: 1 µg/mL (≈ 2.2 µM)
[1]; read-out: MIN (minimum MIC), non-MDR n = 50
  MIC: 1 µg/mL (≈ 2.2 µM)
P. aeruginosa ATCC 27853; ATCC27853, QC strain P. aeruginosa ATCC 27853, test date 2021-11-11
  MIC: 64 µg/mL (≈ 141 µM)
P. aeruginosa ATCC 27853; ATCC27853, QC strain P. aeruginosa ATCC 27853, test date 2021-11-26
  MIC: 16 µg/mL (≈ 35.1 µM)
A. baumannii ATCC 17978
  MIC: 8 µg/mL (≈ 17.6 µM)
E. coli ATCC 35218
  MIC: 4 µg/mL (≈ 8.78 µM)
E. coli ATCC 25922; Escherichia coli, ATCC25922
  MIC: 8 µg/mL (≈ 17.6 µM)
E. coli ATCC 25922; Escherichia coli, ATCC25922, read-out: MIC (QC, repeated tests)
  MIC: 8 µg/mL (≈ 17.6 µM)
E. coli ATCC 25922; QC strain E. coli ATCC 25922, test date 2021-11-26
  MIC: 8 µg/mL (≈ 17.6 µM)
E. faecalis ATCC 29212; Enterococcus faecalis, ATCC29212
  MIC: 0.06 µg/mL (≈ 0.132 µM)
E. faecalis ATCC 29212; QC strain E. faecalis ATCC 29212, test date 2021-11-26
  MIC: 0.06 µg/mL (≈ 0.132 µM)
H. influenzae ATCC 49247; ATCC49247, QC strain H. influenzae ATCC 49247, test date 2021-11-11
  MIC: 0.25 µg/mL (≈ 0.549 µM)
H. influenzae ATCC 49247; ATCC49247, QC strain H. influenzae ATCC 49247, test date 2021-11-26
  MIC: 0.06 µg/mL (≈ 0.132 µM)
H. influenzae ATCC 49766; Haemophilus influenzae, ATCC49766
  MIC: 0.25 µg/mL (≈ 0.549 µM)
H. influenzae ATCC 49766; QC strain H. influenzae ATCC 49766, test date 2021-11-26
  MIC: 0.25 µg/mL (≈ 0.549 µM)
[2]
  MIC: ≤ 0.03 µg/mL
S. pneumoniae ATCC 49619; QC strain S. pneumoniae ATCC 49619, test date 2021-11-26
  MIC: 0.25 µg/mL (≈ 0.549 µM)
S. pneumoniae ATCC 49619; Streptococcus pneumoniae, ATCC49619
  MIC: 0.25 µg/mL (≈ 0.549 µM)

— publication PMC10041525, “New Dual Inhibitors of Bacterial Topoisomerases with Broad-Spectrum Antibacterial Activity and In Vivo Efficacy against Vancomycin-Intermediate Staphylococcus aureus” (Journal of Medicinal Chemistry, 2023)
